{
  "source": "patent US5834491A",
  "about": "“Bis(2-aminopyridine)s, preparation method therefor and use thereof for controlling parasitic infections” (priority 1994, dated 1998)",
  "key": {"[1]": {"tested_on": "biosynthesis of phosphatidylcholine", "experiment": "Specificity towards phosphatidylcholine biosynthesis relative to other macromolecules (radiolabelled precursor incorporation)", "format": "cell-based", "conditions": "relative to nucleic acids, proteins, other phospholipids", "procedure": "Verification of the mechanism of action is carried out on the various derivatives according to the invention by studying the specific interference with phospholipid biosynthesis and measuring the biosynthesis of the different biomolecules, nucleic acids, proteins and phospholipids, on the basis of the incorporation of radiolabelled precursors, [^3 H]hypoxanthine (see above), [^3 H]isoleucine and [^3 H]choline. The specificity in the precise realm of phospholipid metabolism is determined by comparison with the effect on the incorporation of [^3 H]ethanolamine into phosphatidylethanolamine (Ancelin M. L., Vialettes F. and Vial H. J., 1991, Anal. Biochem., 199, 203-209)."}, "Plasmodium falciparum": {"tested_on": "Plasmodium falciparum", "experiment": "Antimalarial activity in vitro towards Plasmodium falciparum ([3H]hypoxanthine incorporation, infected human erythrocytes)", "format": "cell-based", "conditions": "Erythrocyte, approximately 48 hours; for IC50 upper bound (active at tested concentration): Table I", "procedure": "Evaluation of the antimalarial activity in vitro is carried out according to the method of DESJARDINS, CANFIELD, HATNES and CHULAY (Antimicrob. Agents Chemother., 1979, 16, 710-718). A compound according to the invention is brought into contact for approximately 48 hours with human erythrocytes infected with Plasmodium falciparum. When a radioactive nucleic acid precursor, hypoxanthine, is added to the preparation, only erythrocytes infected with Plasmodium and not affected by the said compound incorporate this precursor. […] The results are presented in Table I below, in the form of an IC50 (or ED50) (concentration of compound capable of inhibiting in vitro the growth of the parasites by 50%).\nThe derivatives according to the above examples are tested at three concentrations, 100, 33 and 10 nanomolar."}, "[2]": {"experiment": "Semi-chronic toxicity in vivo", "conditions": "mouse, mice"}, "[3]": {"tested_on": "Plasmodium vinckei, petteri or chabaudi", "experiment": "Antimalarial activity in vivo, infected mice, 4 days", "set-up": "species or system petteri or chabaudi (male Swiss mice)", "conditions": "ip, I.P., twice daily for 4 consecutive days", "procedure": "This activity is measured according to the test described by PETERS W. (Chemotherapy and Drug resistance in Malaria, 1970). A compound according to the invention is administered for 4 consecutive days to mice infected beforehand with malaria using Plasmodium vinckei, petteri or chabaudi.\nThe said compound is dissolved in 0.9% aqueous NaCl solution or, where appropriate, in 10% aqueous gum arabic solution. The preparations are thus administered intraperitoneally or subcutaneously to male Swiss mice of average weight 30 to 40 g which have been infected beforehand intravenously with Plasmodium petterei or P. chabaudi (10^6 infected cells). The compound is administered twice daily for 4 consecutive days, the first injection being performed 2 hours after infestation, and the second 10 hours after. The parasitaemia is determined by means of a smear on the day following the end of the treatment.\nThe results are collated in Table II, in the form of an ED50 (dose of compound administered in vivo capable of a 50% inhibition of the growth of the parasites)."}, "[4]": {"conditions": "cited from earlier work"}, "[5]": {"conditions": "cited from earlier work", "remark": "listed apart in the source"}, "Babesia [6]": {"tested_on": "Babesia", "conditions": "cited from earlier work"}, "Babesia [7]": {"tested_on": "Babesia", "conditions": "cited from earlier work", "remark": "listed apart in the source"}, "Babesia [8]": {"tested_on": "Babesia", "conditions": "McColm 1984; cited from earlier work"}},
  "note": "pIC50: −log10 of the molar value. Counter-ions that a name gives are not always drawn. Like-named read-outs stand apart in the source and are kept apart here.",
  "data": [
    {"compound": "Cc1ccn(CCCCCCCCCCCCn2ccc(C)cc2=N)c(=N)c1", "note": "[Example 1, 1,1'-(1,12-dodecanediyl)bis(4-methyl-2(1H)-pyridinimine) dihydrobromide]", "values": [
      {"measurement": "specificity of action towards the biosynthesis of phosphatidylcholine, relative to the biosyntheses of the other macromolecules", "setting": "[1]", "value": "best specificity of action towards the biosynthesis of phosphatidylcholine"},
      {"measurement": "IC50 upper bound (active at tested concentration)", "setting": "Plasmodium falciparum; 33 nM, read-out: Plasmodium IC50 in vitro resp. at 33 nM", "value": "< 0.033", "unit": "µM"},
      {"measurement": "IC50 upper bound (active at tested concentration)", "setting": "Plasmodium falciparum; 100 nM, read-out: Plasmodium IC50 in vitro resp. 100 nM", "value": "< 0.1", "unit": "µM"},
      {"measurement": "pIC50", "setting": "Plasmodium falciparum; Table II", "value": 9.30},
      {"measurement": "LD50", "setting": "[2]; ip, I.P., 2 injections daily for four days, read-out: Toxicity LD50 I.P.", "value": 30, "unit": "mg/kg"},
      {"measurement": "LD50", "setting": "[2]; po, P.O., semi-chronic, four days, read-out: Toxicity LD50 P.O.", "value": 365, "unit": "mg/kg"},
      {"measurement": "ED50", "setting": "[3]", "value": 1.2, "unit": "mg/kg"}
    ]},
    {"compound": "CO[C@H]1O[C@@H]2O[C@@]3(C)CC[C@H]4[C@H](C)CC[C@@H]([C@H]1C)[C@@]24OO3", "note": "[artemether]", "values": [
      {"measurement": "water-solubility", "setting": "[4]", "value": "low water-solubility"},
      {"measurement": "half-life", "setting": "[5]", "value": "short half-life"}
    ]},
    {"compound": "C[C@@H]1CC[C@H]2[C@@H](C)C(=O)O[C@@H]3O[C@@]4(C)CC[C@@H]1[C@]32OO4", "note": "[artemisinine]", "values": [
      {"measurement": "water-solubility", "setting": "[4]", "value": "low water-solubility"}
    ]},
    {"compound": "C[C@H]1[C@H](OC(=O)CCC(=O)O)O[C@@H]2O[C@@]3(C)CC[C@H]4[C@H](C)CC[C@@H]1[C@@]24OO3", "note": "[artesunate]", "values": [
      {"measurement": "water-solubility", "setting": "[4]", "value": "low water-solubility"},
      {"measurement": "half-life", "setting": "[5]", "value": "short half-life"}
    ]},
    {"compound": "CCO[C@H]1O[C@@H]2O[C@@]3(C)CC[C@H]4[C@H](C)CC[C@@H]([C@H]1C)[C@@]24OO3", "note": "[artether]", "values": [
      {"measurement": "water-solubility", "setting": "[4]", "value": "low water-solubility"},
      {"measurement": "half-life", "setting": "[5]", "value": "short half-life"}
    ]},
    {"compound": "C[C@H]1[C@@H](O)O[C@@H]2O[C@@]3(C)CC[C@H]4[C@H](C)CC[C@@H]1[C@@]24OO3", "note": "[dihydroartemisinine]", "values": [
      {"measurement": "water-solubility", "setting": "[4]", "value": "low water-solubility"},
      {"measurement": "half-life", "setting": "[5]", "value": "short half-life"}
    ]},
    {"compound": "O=C1C(O)=C(CCCCCCCCC2CCCCC2)C(=O)c2ccccc21", "note": "[menoctone]", "values": [
      {"measurement": "results in vivo against Babesia", "setting": "Babesia [6]", "value": "without, however, giving good results in vivo"},
      {"measurement": "activity in vitro against Babesia", "setting": "Babesia [7]", "value": "active in vitro"}
    ]},
    {"compound": "CO[C@H]1/C=C/O[C@@]2(C)Oc3c(C)c(O)c4c(O)c(cc(O)c4c3C2=O)NC(=O)/C(C)=C\\C=C\\[C@H](C)[C@H](O)[C@@H](C)[C@@H](O)[C@@H](C)[C@H](OC(C)=O)[C@@H]1C", "note": "[rifamycin]", "values": [
      {"measurement": "resistance of Babesia", "setting": "Babesia [8]", "value": "increased resistance"}
    ]},
    {"compound": "CN(C)C1C(=O)C(C(N)=O)=C(O)C2(O)C(=O)C3=C(O)c4c(O)cccc4C(C)(O)C3CC12", "note": "(stereo not shown) [tetracycline]", "values": [
      {"measurement": "results in vivo against Babesia", "setting": "Babesia [6]", "value": "without, however, giving good results in vivo"},
      {"measurement": "activity in vitro against Babesia", "setting": "Babesia [7]", "value": "active in vitro"}
    ]},
    {"compound": "Nc1ncnc2c1ccn2[C@@H]1O[C@H](CO)[C@@H](O)[C@H]1O", "note": "[tubercidin]", "values": [
      {"measurement": "results in vivo against Babesia", "setting": "Babesia [6]", "value": "without, however, giving good results in vivo"},
      {"measurement": "activity in vitro against Babesia", "setting": "Babesia [7]", "value": "active in vitro"}
    ]},
    {"compound": "CC[C@H]1OC(=O)C[C@@H](O)[C@H](C)[C@@H](O[C@@H]2O[C@H](C)[C@@H](O[C@H]3C[C@@](C)(O)[C@@H](O)[C@H](C)O3)[C@H](N(C)C)[C@H]2O)[C@@H](CC=O)C[C@@H](C)C(=O)/C=C/C(C)=C/[C@@H]1CO[C@@H]1O[C@H](C)[C@@H](O)[C@@H](OC)[C@H]1OC", "note": "[tylosin]", "values": [
      {"measurement": "resistance of Babesia", "setting": "Babesia [8]", "value": "increased resistance"}
    ]},
    {"compound": "gramicidin D", "values": [
      {"measurement": "resistance of Babesia", "setting": "Babesia [8]", "value": "increased resistance"}
    ]}
  ]
}
